Read-outs that look alike come from different tables or passages of the source.
Columns and labels:
DCN1 protein = DCN1 protein (Homo sapiens (Human), UniProt Q96GG9); experiment: Intact Protein MS Analysis with the RapidFire-TOF System (covalent adduct formation); type: binding; details: MS Emax; 400 nM DCN1, 3 hours at room temperature
Procedure, shortened: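 Tag-cleaved human DCN1 (400 nM) expressed in E. coli, in 25 mM Tris-HCl, 200 mM NaCl, 1 mM DTT, was incubated with 11 compound concentrations for 3 h at room temperature and quenched with 0.2% formic acid. Intact-protein Q-TOF MS with deconvolution detected the compound adduct mass.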

[1] = target: DCN1 (DCUND1) protein PONY domain (Homo sapiens (Human), UniProt Q96GG9); experiment: TR-FRET assay, DCN1 binding with FAM-labeled probe
DCN1 (DCUND1) protein PONY domain, sequence (Q96GG9 60-248): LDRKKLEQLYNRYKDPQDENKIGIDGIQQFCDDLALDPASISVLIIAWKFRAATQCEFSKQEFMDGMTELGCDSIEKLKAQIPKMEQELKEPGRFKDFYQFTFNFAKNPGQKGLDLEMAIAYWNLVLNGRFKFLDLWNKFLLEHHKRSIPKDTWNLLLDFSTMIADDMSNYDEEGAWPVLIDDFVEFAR
Procedure, shortened: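 Binding was read as the TR-FRET ratio between a FAM-tagged inhibitor probe and Tb-labeled biotinylated E. coli-expressed DCN1 PONY domain, measured 1, 5 and 24 h after compound addition. The two setups used 5 nM protein/20 nM FAM-probe or 0.31 nM protein/900 nM total probe (100 nM labeled), in TritonX buffer with 200 mM NaCl.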

[2] = tested on: Cullin-3 (CUL3) neddylation; experiment: AlphaLISA assay for Cullin-3 (CUL3) neddylation in TF 1 cells; type: cell-based; details: 3 hours treatment
Procedure, shortened: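 Neddylated CUL3 was quantified by AlphaLISA in lysates of TF 1 cells exposed for 3 h to test compound in IMDM without supplements. Percent inhibition set between vehicle and 1 μM DI-1548 positive control; IC50 derived by Hill-equation fitting of dose-response curves.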

[3] = 24 hr after treatment with compound, read-out: TR FRET IC50 24 hr
[4] = TR FRET IC50 1 hr (nM), 1 hr after treatment with compound
[5] = read-out: TR FRET IC50 1 hr, 1 hr after treatment with compound

DCN1 protein, sequence (Q96GG9 whole entry): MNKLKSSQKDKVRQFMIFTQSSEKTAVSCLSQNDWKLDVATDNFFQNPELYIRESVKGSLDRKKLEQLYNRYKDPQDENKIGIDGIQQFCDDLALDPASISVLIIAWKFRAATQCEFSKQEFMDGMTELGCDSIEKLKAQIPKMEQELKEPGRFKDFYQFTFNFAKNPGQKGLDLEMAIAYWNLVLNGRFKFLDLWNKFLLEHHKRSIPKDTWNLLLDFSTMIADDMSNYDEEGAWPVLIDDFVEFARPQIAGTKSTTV

Structure (SMILES)	% Adduct Formation (DCN1 protein)	IC50 [1, 3] [nM]	IC50 [1, 4] [nM]	IC50 ([2]; Homo sapiens, TF-1, 3 h) [nM]	IC50 [1, 5] [nM]	IC50 ([2]; Homo sapiens) [nM]	IC50 [2] [nM]
CCN1C(=O)[C@@H](NC(=O)c2cccc(C(F)(F)F)c2)[C@@H](c2ccc(F)cc2)c2c(C(=O)N3CCC[C@H]3C#N)nn(-c3cccc(OCCCN4CCOCC4)c3)c21 [Compound I-338]	+++ (MS Emax % adduct formation greater than 80.0 and less than or equal to 100.0)	≤ 200	1000 to 3000	≤ 100	–	–	–
CCN1C(=O)[C@@H](NC(=O)c2cccc(C(F)(F)F)c2)[C@@H](c2ccc(F)cc2)c2c(C(=O)N3CCC[C@H]3C#N)nn(-c3cccc(OCCCN(C)C4COC4)c3)c21 [Compound I-335]	+++ (MS Emax % adduct formation greater than 80.0 and less than or equal to 100.0)	≤ 200	1000 to 3000	≤ 100	–	–	–
CCN1C(=O)[C@@H](NC(=O)c2cccc(SC(F)(F)F)c2)[C@@H](C2CC2)c2c(C(=O)N3[C@H](C#N)C[C@H]4C[C@H]43)nn(C3CCOCC3)c21 [Compound I-389]	+++ (MS Emax % adduct formation greater than 80.0 and less than or equal to 100.0)	≤ 200	–	–	≤ 200	≤ 100	–
CCN1C(=O)[C@@H](NC(=O)c2cccc(C(F)(F)F)c2)[C@@H](c2ccc(F)cc2)c2c(NC(=O)CC#N)nn(-c3ccccc3)c21 (racemic) [Compound I-80]	+ (MS Emax % adduct formation greater than or equal to 0.0 and less than or equal to 30.0)	1000 to 3000	1000 to 3000	≤ 100	–	–	–
CCN1C(=O)[C@@H](NC(=O)c2ccn(C(F)(F)F)n2)[C@@H](c2ccc(F)cc2)c2c(C(=O)N3CCC[C@H]3C#N)nn(-c3ccccc3)c21 [Compound I-343, N-((4S,5S)-3-((S)-2-cyanopyrrolidine-1-carbonyl)-7-ethyl-4-(4-fluorophenyl)-6-oxo-1-phenyl-4,5,6,7-tetrahydro-1H-pyrazolo[3,4-b]pyridin-5-yl)-1-(trifluoromethyl)-1H-pyrazole-3-carboxamide]	++ (MS Emax % adduct formation greater than 30.0 and less than or equal to 80.0)	≤ 200	1000 to 3000	≤ 100	–	–	–
CCN1C(=O)[C@@H](NC(=O)c2cccc(C(F)(F)F)c2)[C@@H](c2ccc(F)cc2)c2c(C(=O)N3CCS(=O)(=O)CC3C#N)nn(-c3ccccc3)c21 (stereo partly shown) [Compound I-325]	+++ (MS Emax % adduct formation greater than 80.0 and less than or equal to 100.0)	≤ 200	–	≤ 100	≤ 200	–	–
CCN1C(=O)[C@@H](NC(=O)c2cccc(C(F)(F)F)c2)[C@@H](c2ccc(F)cc2)c2c(C(=O)N3CCC[C@H]3C#N)nn(-c3cccc(OCCN(C)C4COC4)c3)c21 [Compound I-347]	+++ (MS Emax % adduct formation greater than 80.0 and less than or equal to 100.0)	≤ 200	200 to 1000	≤ 100	–	–	–
CCN1C(=O)[C@@H](NC(=O)c2cccc(C(F)(F)F)c2)[C@@H](c2ccc(F)cc2)c2c(C(=O)N3[C@H](C#N)C[C@H]4C[C@H]43)nn(C3CC3)c21 [Compound I-330]	+++ (MS Emax % adduct formation greater than 80.0 and less than or equal to 100.0)	≤ 200	–	≤ 100	≤ 200	–	–
CCN1C(=O)[C@@H](NC(=O)c2cccc(C(F)(F)F)c2)C(c2ccc(F)cc2)c2c(C(=O)N(C)C(C)C#N)nn(C3CCOCC3)c21 (stereo partly shown) [Compound I-305]	+++ (MS Emax % adduct formation greater than 80.0 and less than or equal to 100.0)	≤ 200	–	≤ 100	≤ 200	–	–
CCN1C(=O)[C@@H](NC(=O)c2cccc(C(F)(F)F)c2)[C@@H](c2ccc(F)cc2)c2c(C(=O)N(CC#N)C3CC3)nn(C3CC3)c21 [Compound I-355]	+++ (MS Emax % adduct formation greater than 80.0 and less than or equal to 100.0)	≤ 200	–	≤ 100	≤ 200	–	–
CCN1C(=O)[C@@H](NC(=O)c2cccc(C(F)(F)F)c2)[C@@H](c2ccc(F)cc2)c2c(C(=O)N3[C@H](C#N)C[C@H]4C[C@H]43)nn(C3CCOCC3)c21 [Compound I-329]	+++ (MS Emax % adduct formation greater than 80.0 and less than or equal to 100.0)	≤ 200	–	≤ 100	≤ 200	–	–
CCN1C(=O)[C@@H](NC(=O)c2cccc(C(F)(F)F)c2)[C@@H](c2ccc(F)cc2)c2c(C(=O)N3CCC[C@H]3C#N)nn(-c3cccc(OCCCN4CCN(C5COC5)CC4)c3)c21 [Compound I-337]	+++ (MS Emax % adduct formation greater than 80.0 and less than or equal to 100.0)	≤ 200	–	≤ 100	≤ 200	–	–
CCN(CC#N)C(=O)c1nn(-c2ccccc2)c2c1[C@H](c1ccc(F)cc1)[C@H](NC(=O)c1cccc(C(F)(F)F)c1)C(=O)N2CC (stereo in doubt) [Compound I-283]	+++ (MS Emax % adduct formation greater than 80.0 and less than or equal to 100.0)	≤ 200	–	≤ 100	≤ 200	–	–
CCN1C(=O)[C@@H](NC(=O)c2cccc(C(F)(F)F)c2)[C@@H](C2CC2)c2c(C(=O)N3[C@H](C#N)C[C@H]4C[C@H]43)nn(C3CC3)c21 [Compound I-327]	+++ (MS Emax % adduct formation greater than 80.0 and less than or equal to 100.0)	≤ 200	–	≤ 100	≤ 200	–	–
CCN1C(=O)[C@@H](NC(=O)c2ccn(C(F)(F)F)n2)[C@@H](c2ccc(F)cc2)c2c(C(=O)N3CCOC[C@H]3C#N)nn(-c3ccccc3)c21 [Compound I-345]	+++ (MS Emax % adduct formation greater than 80.0 and less than or equal to 100.0)	≤ 200	200 to 1000	≤ 100	–	–	–
CCN1C(=O)[C@@H](NC(=O)c2cccc(C(F)(F)F)c2)[C@@H](c2ccc(F)cc2)c2c(C(=O)N(C)[C@H](C)C#N)nn(-c3ccccc3)c21 (single isomer, unassigned) [Compound I-289, (4S,5S)—N—((R*)-1-cyanoethyl)-7-ethyl-4-(4-fluorophenyl)-N-methyl-6-oxo-1-phenyl-5-(3-(trifluoromethyl)benzamido)-4,5,6,7-tetrahydro-1H-pyrazolo[3,4-b]pyridine-3-carboxamide]	+++ (MS Emax % adduct formation greater than 80.0 and less than or equal to 100.0)	≤ 200	≤ 200	≤ 100	–	–	–
CCN1C(=O)[C@@H](NC(=O)c2cccc3c2OCO3)[C@@H](C2CC2)c2c(C(=O)N3[C@H](C#N)C[C@H]4C[C@H]43)nn(C3CCOCC3)c21 [Compound I-397]	+++ (MS Emax % adduct formation greater than 80.0 and less than or equal to 100.0)	≤ 200	–	–	≤ 200	≤ 100	–
CCN1C(=O)[C@@H](NC(=O)c2ccn(C(F)(F)F)n2)[C@@H](c2ccc(F)cc2)c2c(C(=O)N3CCNC[C@H]3C#N)nn(-c3ccccc3)c21 [Compound I-346, N-((4S,5S)-3-((S)-2-cyanopiperazine-1-carbonyl)-7-ethyl-4-(4-fluorophenyl)-6-oxo-1-phenyl-4,5,6,7-tetrahydro-1H-pyrazolo[3,4-b]pyridin-5-yl)-1-(trifluoromethyl)-1H-pyrazole-3-carboxamide]	+++ (MS Emax % adduct formation greater than 80.0 and less than or equal to 100.0)	≤ 200	200 to 1000	≤ 100	–	–	–
CCN1C(=O)[C@@H](NC(=O)c2cccc(C(F)(F)F)c2)[C@@H](c2ccc(F)cc2)c2c(C(=O)N3CCOC[C@H]3C#N)nn(-c3ccccc3)c21 (mixture of isomers) [Compound I-295]	+++ (MS Emax % adduct formation greater than 80.0 and less than or equal to 100.0)	≤ 200	1000 to 3000	–	–	–	≤ 100
CCN1C(=O)[C@@H](NC(=O)c2cccc(C(F)(F)F)c2)[C@H](c2ccc(F)cc2)c2c(CC(=O)NCC#N)nn(-c3ccccc3)c21 [Compound I-298, N-((4R,5S)-3-(2-((cyanomethyl)amino)-2-oxoethyl)-7-ethyl-4-(4-fluorophenyl)-6-oxo-1-phenyl-4,5,6,7-tetrahydro-1H-pyrazolo[3,4-b]pyridin-5-yl)-3-(trifluoromethyl)benzamide]	+ (MS Emax % adduct formation greater than or equal to 0.0 and less than or equal to 30.0)	200 to 1000	200 to 1000	100 to 1000	–	–	–
C=C(CN1CC2(COC2)C1)C(=O)NCc1nn(-c2ccccc2)c2c1[C@H](c1ccc(F)cc1)[C@H](NC(=O)c1cccc(C(F)(F)F)c1)C(=O)N2CC [Compound I-138]	+++ (MS Emax % adduct formation greater than 80.0 and less than or equal to 100.0)	≤ 200	–	≤ 100	≤ 200	–	–
CCN1C(=O)[C@@H](NC(=O)c2cccc(C(F)(F)F)c2)[C@@H](c2ccc(F)cc2)c2c(C(=O)N(CC#N)C3CC3)nn(C3CCOCC3)c21 [Compound I-351]	+++ (MS Emax % adduct formation greater than 80.0 and less than or equal to 100.0)	≤ 200	–	≤ 100	≤ 200	–	–
